Data published in US20230048132A1, “CYCLIN-DEPENDENT KINASE INHIBITORS” (SPV THERAPEUTICS INC., priority 2018, published 2023).

What was measured:
CDK9-CYCLINT1 = target: T1, CDK9-CYCLINT1 (Homo sapiens, UniProt P50750); test: CDK inhibition assay (microfluidic LabChip, IC50 format); type: biochemical; conditions: Table 4a; read-out: CDK9 CyclinT1 IC50
T1 construct: purchased Carna

all cell lines tested = test: 2D cell proliferation assay, geometric mean over the cell line panel; type: cell-based; conditions: Table 5 lower part; geometric mean over the 8-line panel; read-out: Geomean abs. IC50 value
Description: (§1) Viability of the cells was analyzed by using the CellTiter-Blue® Cell Viability Assay (Promega), and was performed according to manufacturer's instructions. Briefly, cells were harvested from exponential phase cultures (Chapter 6.6), counted and plated in 96-well flat-bottom microtiter plates at a cell density of 4,000-60,000 cells/well in a volume of 140 μl per well. After a 24 hours recovery period, 10 μL cell culture medium (six control wells/plate) or culture medium with test compound were added (Chapter 6.2). The compounds were applied at five concentrations in full-log increments up to 100 μM in duplicate. Cultures were incubated at 37° C. and 5% CO2 in a humidified atmosphere for another three days. After three days of treatment, 20 μl/well CellTiter-Blue® reagent was added. Following incubation with CellTiter-Blue® reagent for up to four hours, fluorescence (FU) was measured by using the Enspire Multimode Plate Reader (excitation λ=570 nm, emission λ=600 nm). For calculations, the mean values of duplicate/sextuplicate (untreated control) data were used.
(§2) IC values are reported as relative IC50 values and absolute IC50 and IC70 values. […] The absolute IC70 value gives the concentration of the test compound that achieves T/C=30%. The relative IC50 value is the concentration of test compound that gives a response halfway between the top and bottom plateau of the sigmoidal concentration-response curve (inflection point of the curve). Calculation was done by 4parameter non-linear curve fit (Oncotest Data Warehouse Software).
(§3) If an IC50 or IC70 value could not be determined within the examined dose range (because a compound was either too active or lacked activity), the lowest or highest concentration studied was used for calculation of the geometric mean value.
The overall potency of a compound was determined by the geometric mean IC50/IC70 values of all individual IC50/IC70 values. In the heatmap representation of IC50 and IC70 values, the distribution of the IC50 or IC70 values obtained for a test compound in the individual cell lines is given in relation to the geometric mean IC50 or IC70 value, obtained over all PDX models tested. The individual IC values range from 1/32-fold geometric mean IC (corresponding to very potent compound activity or high tumor sensitivity) to 32-fold geometric mean IC (corresponding to lack of compound activity or tumor resistance). The heatmap presentation, therefore, represents an antiproliferative “fingerprint” profile of a test compound.

CDK6-CYCLIND3 = target: T2, CDK6-CYCLIND3 (Homo sapiens, UniProt Q00534); test: CDK inhibition assay (microfluidic LabChip, IC50 format); type: biochemical; conditions: Table 4a; read-out: CDK6 CyclinD3 IC50
T2 construct: purchased Carna

[1] = Pharmacokinetics after oral administration; type: in vivo; conditions: rat, plasma, rats
Description: (§6) Nonclinical pharmacokinetic (PK) parameters of lead CDK4/6/9 inhibitors were determined in an intravenous (IV) and oral study (p.o.) conducted in rats. Lead compounds were each administered as a single oral dose at 100 mg/kg or by IV bolus via the caudal vein at the dose of 30 mg/kg. Blood samples were collected at 0.25, 0.5, 1, 2, 4, 8, 12, and 24 hours post i.v. administration, and at 1, 2, 4, 8, 24 and 48 hours post oral administration. Plasma was processed for drug concentration analysis using a validated LCMS/MS method, and PK parameters were calculated by using WinNonlin.

MEXF WM-266-4 = test: 2D cell proliferation assay (CellTiter-Blue); type: cell-based; conditions: Homo sapiens, 72 h, three days of treatment, read-out: abs. IC50
Description: as §1
(§4) An assay was considered fully evaluable if the following quality control criteria were fulfilled: • control/background ratio>3.0-Z′-factor calculated within the assay plate>0.5 [7]—coefficient of variation in the growth control wells <30%
(§5) Drug effects were expressed in terms of the percentage of the fluorescence signal, obtained by comparison of the mean signal in the treated wells with the mean signal of the untreated controls (expressed by the test-versus-control value, T/C-value [%]):
as §2, §3

MAXFLB MCF7 (ER+) = test: 2D cell proliferation assay (CellTiter-Blue); type: cell-based; conditions: Homo sapiens, 72 h, three days of treatment, read-out: abs. IC50
Description: as §1, §4, §5, §2, §3

MAXFTN ZR-75-1 (ER+) = test: 2D cell proliferation assay (CellTiter-Blue); type: cell-based; conditions: Homo sapiens, 72 h, three days of treatment, read-out: abs. IC50
Description: as §1, §4, §5, §2, §3

LXFL NCl-H1299 = test: 2D cell proliferation assay (CellTiter-Blue); type: cell-based; conditions: 72 h, three days of treatment, read-out: abs. IC50
Description: as §1, §4, §5, §2, §3

LEXFAM MV4-11 = test: 2D cell proliferation assay (CellTiter-Blue); type: cell-based; conditions: Homo sapiens, 72 h, three days of treatment, read-out: abs. IC50
Description: as §1, §4, §5, §2, §3

MAXFTN MDA-MB-231 (ER−) = test: 2D cell proliferation assay (CellTiter-Blue); type: cell-based; conditions: Homo sapiens, 72 h, three days of treatment, read-out: abs. IC50
Description: as §1, §4, §5, §2, §3

LEXFAL MOLT-4 = test: 2D cell proliferation assay (CellTiter-Blue); type: cell-based; conditions: Homo sapiens, 72 h, three days of treatment, read-out: abs. IC50
Description: as §1, §4, §5, §2, §3

LXFA A549 = test: 2D cell proliferation assay (CellTiter-Blue); type: cell-based; conditions: Homo sapiens, 72 h, three days of treatment, read-out: abs. IC50
Description: as §1, §4, §5, §2, §3

CDK2-CYCLINA = target: T3, CDK2-CYCLINA (Homo sapiens, UniProt P24941); test: CDK inhibition assay (microfluidic LabChip, IC50 format); type: biochemical; conditions: Table 4a; read-out: CDK2 CyclinA IC50
T3 construct: purchased Millipore

CDK7 CyclinH = CDK7 CyclinH (Homo sapiens, UniProt P50613); test: as above; type: biochemical; conditions: Table 4a
CDK4-CYCLIND1 = CDK4-CYCLIND1 (Homo sapiens, UniProt P11802); test: as above; conditions: CDK4 CyclinD1 IC50, Table 4a; a second value in parentheses for some compounds
[2] = Pharmacokinetics after IV bolus; type: in vivo; conditions: rat, plasma; rats; IV bolus 30 mg/kg; N = 3
Description: as §6

[3] = oral administration 100 mg/kg, N = 3

Chain of CDK7 CyclinH (P50613 whole entry): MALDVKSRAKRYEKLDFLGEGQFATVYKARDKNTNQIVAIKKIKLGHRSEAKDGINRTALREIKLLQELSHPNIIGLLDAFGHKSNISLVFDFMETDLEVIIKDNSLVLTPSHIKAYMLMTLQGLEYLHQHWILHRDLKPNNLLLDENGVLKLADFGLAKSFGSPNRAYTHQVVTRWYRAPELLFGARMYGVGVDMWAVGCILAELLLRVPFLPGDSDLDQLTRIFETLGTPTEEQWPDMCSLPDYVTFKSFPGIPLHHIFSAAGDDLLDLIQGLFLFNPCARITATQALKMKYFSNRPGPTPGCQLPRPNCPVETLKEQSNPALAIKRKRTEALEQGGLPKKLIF
Chain of CDK7 CyclinH (P51946 whole entry partner): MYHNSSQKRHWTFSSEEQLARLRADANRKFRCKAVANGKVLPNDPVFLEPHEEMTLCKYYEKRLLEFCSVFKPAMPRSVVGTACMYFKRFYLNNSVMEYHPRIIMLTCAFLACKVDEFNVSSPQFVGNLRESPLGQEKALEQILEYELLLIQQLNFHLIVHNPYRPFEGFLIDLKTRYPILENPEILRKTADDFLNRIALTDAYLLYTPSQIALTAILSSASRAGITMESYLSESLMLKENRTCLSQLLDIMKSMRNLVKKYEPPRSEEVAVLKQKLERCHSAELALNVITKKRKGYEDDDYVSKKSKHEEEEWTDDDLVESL
Chain of CDK7 CyclinH (P51948 whole entry partner): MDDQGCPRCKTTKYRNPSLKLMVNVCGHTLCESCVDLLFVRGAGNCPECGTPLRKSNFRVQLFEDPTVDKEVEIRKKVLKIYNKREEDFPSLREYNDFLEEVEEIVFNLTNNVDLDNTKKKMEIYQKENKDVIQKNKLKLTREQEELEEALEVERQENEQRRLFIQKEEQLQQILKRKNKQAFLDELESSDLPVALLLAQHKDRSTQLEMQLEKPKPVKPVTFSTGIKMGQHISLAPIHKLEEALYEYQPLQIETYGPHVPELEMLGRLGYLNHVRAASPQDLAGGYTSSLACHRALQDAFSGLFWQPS
Chain of CDK4-CYCLIND1 (P11802 whole entry): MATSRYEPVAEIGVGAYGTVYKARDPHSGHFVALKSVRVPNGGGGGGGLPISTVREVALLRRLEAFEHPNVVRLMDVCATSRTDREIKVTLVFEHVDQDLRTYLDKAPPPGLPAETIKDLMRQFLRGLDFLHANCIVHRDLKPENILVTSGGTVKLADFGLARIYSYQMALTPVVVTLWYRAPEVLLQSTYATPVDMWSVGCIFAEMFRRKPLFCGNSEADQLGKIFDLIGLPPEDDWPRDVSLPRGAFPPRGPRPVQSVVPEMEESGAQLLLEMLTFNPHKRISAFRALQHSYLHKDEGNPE
Chain of CDK4-CYCLIND1 (P24385 whole entry partner): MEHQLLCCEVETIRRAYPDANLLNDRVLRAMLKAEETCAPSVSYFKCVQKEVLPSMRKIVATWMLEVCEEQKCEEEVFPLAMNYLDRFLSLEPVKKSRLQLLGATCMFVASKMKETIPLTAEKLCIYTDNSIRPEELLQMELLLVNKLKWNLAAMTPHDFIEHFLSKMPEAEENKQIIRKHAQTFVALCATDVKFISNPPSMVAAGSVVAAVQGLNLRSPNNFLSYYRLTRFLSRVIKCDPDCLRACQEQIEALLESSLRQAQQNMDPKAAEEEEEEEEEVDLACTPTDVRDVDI
T1 sequence (P50750 whole entry): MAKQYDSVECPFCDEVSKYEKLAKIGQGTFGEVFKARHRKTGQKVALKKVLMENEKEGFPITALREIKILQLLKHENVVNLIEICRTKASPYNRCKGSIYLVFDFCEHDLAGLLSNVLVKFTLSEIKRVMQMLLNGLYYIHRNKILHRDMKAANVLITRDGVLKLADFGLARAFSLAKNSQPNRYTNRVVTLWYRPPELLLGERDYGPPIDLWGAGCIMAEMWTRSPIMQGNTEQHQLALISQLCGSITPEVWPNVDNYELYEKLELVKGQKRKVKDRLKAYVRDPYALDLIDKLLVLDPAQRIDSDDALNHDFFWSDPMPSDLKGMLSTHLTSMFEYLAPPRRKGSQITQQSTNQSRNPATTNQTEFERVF
T1 sequence (O60563 whole entry partner): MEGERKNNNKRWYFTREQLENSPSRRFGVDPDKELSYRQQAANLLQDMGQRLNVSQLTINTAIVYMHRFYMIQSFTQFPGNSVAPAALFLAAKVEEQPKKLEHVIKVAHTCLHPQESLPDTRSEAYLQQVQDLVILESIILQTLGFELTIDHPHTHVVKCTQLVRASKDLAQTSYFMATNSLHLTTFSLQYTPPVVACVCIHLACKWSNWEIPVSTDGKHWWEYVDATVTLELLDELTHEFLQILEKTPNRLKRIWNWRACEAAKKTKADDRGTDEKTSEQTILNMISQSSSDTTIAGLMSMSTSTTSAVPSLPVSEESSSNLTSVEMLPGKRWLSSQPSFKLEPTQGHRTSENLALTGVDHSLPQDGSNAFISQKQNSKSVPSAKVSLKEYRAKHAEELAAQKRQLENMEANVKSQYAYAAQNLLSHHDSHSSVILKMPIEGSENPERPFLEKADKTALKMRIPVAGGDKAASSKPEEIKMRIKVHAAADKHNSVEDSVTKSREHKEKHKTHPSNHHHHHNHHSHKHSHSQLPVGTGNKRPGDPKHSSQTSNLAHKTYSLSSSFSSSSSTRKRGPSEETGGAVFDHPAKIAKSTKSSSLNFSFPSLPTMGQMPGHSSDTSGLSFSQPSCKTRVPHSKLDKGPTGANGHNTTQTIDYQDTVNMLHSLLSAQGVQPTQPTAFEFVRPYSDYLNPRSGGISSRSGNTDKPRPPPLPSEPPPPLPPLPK
T2 sequence (Q00534 whole entry): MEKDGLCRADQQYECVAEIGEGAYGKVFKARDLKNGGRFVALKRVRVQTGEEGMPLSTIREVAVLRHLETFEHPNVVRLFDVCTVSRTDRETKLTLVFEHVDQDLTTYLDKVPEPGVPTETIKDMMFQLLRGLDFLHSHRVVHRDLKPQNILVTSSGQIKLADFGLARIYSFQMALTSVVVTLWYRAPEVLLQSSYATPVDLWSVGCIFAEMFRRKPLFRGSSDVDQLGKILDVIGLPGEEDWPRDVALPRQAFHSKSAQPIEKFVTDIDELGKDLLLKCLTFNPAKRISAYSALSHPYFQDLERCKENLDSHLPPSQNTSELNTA
T2 sequence (P30281 whole entry partner): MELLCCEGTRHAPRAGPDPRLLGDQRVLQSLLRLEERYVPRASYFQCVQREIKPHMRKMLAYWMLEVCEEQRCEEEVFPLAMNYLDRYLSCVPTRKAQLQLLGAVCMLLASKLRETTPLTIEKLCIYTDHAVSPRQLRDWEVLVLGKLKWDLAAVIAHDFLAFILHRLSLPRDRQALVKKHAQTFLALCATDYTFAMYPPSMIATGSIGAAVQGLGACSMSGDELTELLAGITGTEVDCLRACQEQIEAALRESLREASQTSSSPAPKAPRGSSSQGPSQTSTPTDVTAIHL

With CC(C)N1CCN(c2ccc(Nc3ncc4c(n3)N(C3CCCC3)C(=O)[C@]3(CCNC3=O)C4)cc2)CC1 [Example D145, (S)-8-cyclopentyl-2-((4-(4-isopropylpiperazin-1-yl)phenyl)amino)-5,8-dihydro-7H-spiro[pyrido[2,3-d]pyrimidine-6,3′-pyrrolidine]-2′,7-dione] the IC50 (CDK9-CYCLINT1) was 5.02 nM, the IC50 (all cell lines tested) was 189 nM and the IC50 (CDK6-CYCLIND3) was 1.65 nM. For the same molecule, the bioavailability ([1]; oral 100 mg/kg versus IV 30 mg/kg, read-out: BIOAVAILABILITY F) was 43.8%, the AUC [1, 3] was 21500 ng·h/mL and the Cmax [1, 3] was 4470 ng/mL. The MRT [1, 3] was 4.37 h, the half-life [1, 3] was 5.6 h and the IC50 (MEXF WM-266-4) was 47 nM. For the same molecule, the IC50 (MAXFLB MCF7 (ER+)) was 88 nM, the IC50 (MAXFTN ZR-75-1 (ER+)) was at least 100000 nM and the IC50 (LXFL NCl-H1299) was 108 nM. It also gave an IC50 (LEXFAM MV4-11) of at most 10 nM, an IC50 (MAXFTN MDA-MB-231 (ER−)) of 300 nM and an IC50 (LEXFAL MOLT-4) of 84 nM. It also gave an IC50 (LXFA A549) of 148 nM, an IC50 (CDK2-CYCLINA) of 21.7 nM and an IC50 (CDK7 CyclinH) of 153 nM. For the same molecule, the IC50 (CDK4-CYCLIND1) was 0.784 nM, the Cmax [2] was 7730 ng/mL and the clearance [2] was 35.2 mL/min/kg. It also gave a half-life [2] of 1.93 h.
